Like-named read-outs stand apart in the source and are kept apart here.
How the values were obtained:
Format in all cases: in vivo
Tetranychus urticae [1] = assay: Tetranychus urticae - spray test, OP-resistant (Example A, French bean leaf disks); settings: for pest or weed control at 1.2 g/ha: 1.2 g ai/ha
Description: (§1) E is the efficacy expressed in % mortality of the untreated control using the mixture of A and B at m and n ppm respectively m and n g/ha, • then is
Tetranychus urticae—Spray Test OP-Resistant
Solvent: 78.0 parts by weight acetone • 1.5 parts by weight dimethylformamide
Emulsifier: alkylarylpolyglycol ether […]
French bean (Phaseolus vulgaris) leaf disks infected with all instars of the two spotted spidermite (Tetranychus urticae), are sprayed with a preparation of the active ingredient of the desired concentration.
After the specified period of time, mortality in % is determined. 100% means all spider mites have been killed and 0% means none of the spider mites have been killed. The mortality values determined thus are recalculated using the Colby-formula (see above).

Tetranychus urticae [2] = assay: Tetranychus urticae - spray test, OP-resistant (Example B, infested bean plants); settings: single active ingredient, mortality
Protocol: as §1
Tetranychus urticae—Spray Test; OP-Resistant
(§2) Solvent: 7 parts by weight of dimethylformamide
Emulsifier: alkylaryl polyglycol ether
Further test concentrations are prepared by dilution with emulsifier containing water.
After the specified period of time mortality in % is determined. 100% means all the spider mites have been killed and 0% means none of the spider mites have been killed. The mortality values determined thus are recalculated using the Colby-formula (see above).

Meloidogyne incognita [3] = assay: Meloidogyne incognita - test (Example D, soil drench, salad seeds, gall formation); settings: single active ingredient, reduction of gall formation
Protocol: The expected efficacy of a given combination of two compounds is calculated as follows (see Colby, S. R., “Calculating Synergistic and antagonistic Responses of Herbicide Combinations”, Weeds 15, pp. 20-22, 1967): • If • X is the efficacy expressed in % mortality of the untreated control for test compound A at a concentration of m ppm respectively m g/ha, • Y is the efficacy expressed in % mortality of the untreated control for test compound B at a concentration of n ppm respectively n g/ha,
as §1
[formula] • If the observed insecticidal efficacy of the combination is higher than the one calculated as “E”, then the combination of the two compounds is more than additive, i.e., there is a synergistic effect.
Meloidogyne incognita—Test
as §2
Emulsifier: 2.5 parts by weight of alkylarylpolyglycolether
To produce a suitable preparation of active compound, 1 part by weight of active compound is mixed with the stated amount of solvent and emulsifier and is diluted with water to the desired concentration. To produce a suitable preparation of a spore suspension the spores are diluted with emulsifier containing water to the desired concentration. In the calculation of the concentration the soil volume has to be included. […] Further test concentrations are prepared by dilution with water.
The compound solution is poured into pots filled with soil (loamy sand). A suspension containing eggs and larvae of the southern root-knot nematode (Meloidogyne incognita) is added, salad seeds are spread on the soil surface and covered with quartz sand. The salad seeds germinate and the seedlings grow. Galls develop on the roots.
After the specified period of time the nematicidal activity is determined on the basis of the percentage of gall formation. 100% means no galls were found; 0% means the number of galls found on the roots of the treated plants was equal to that in untreated control plants. The activity determined thus is recalculated using the Colby-formula (see above).

Meloidogyne incognita [4] = assay: Meloidogyne incognita - test (Example C, sand, salad seeds, gall formation); settings: single active ingredient, reduction of gall formation
Protocol: Meloidogvne incognita—Test
Solvent: 125.0 parts by weight of acetone
To produce a suitable preparation of active compound, 1 part by weight of active compound is mixed with the stated amount of solvent, and the concentrate is diluted with water to the desired concentration.
To produce a suitable preparation of a spore suspension the spores are diluted with water to the desired concentration.
Vessels are filled with sand, a solution of the active ingredient, a suspension containing eggs and larvae of the southern root-knot nematode (Meloidogyne incognita) and salad seeds. The salad seeds germinate and the seedlings grow. Galls develop in the roots.
After the specified period of time nematicidal activity is determined on the basis of the percentage of gall formation. 100% means no galls were found and 0% means the number of galls found on the roots of the treated plants was equal to that in untreated control plants.

[5] = Tetranychus urticae, foliar, 144 h, single active ingredient, mortality, read-out: Efficacy in % after 6 days
[6] = Tetranychus urticae, foliar, 144 h, 0.5 g ai/ha, single active ingredient, mortality, read-out: Efficacy in % after 6 days
[7] = 0.5 g ai/ha, single active ingredient, mortality
[8] = Tetranychus urticae, foliar, 144 h, read-out: Efficacy in % after 6 days

Cc1cc(F)c(N=C2SCC(=O)N2CC(F)(F)F)cc1[S+]([O-])CC(F)(F)F (centres unmarked) [Cpd of formula (I)]
pest or weed control at 1.2 g/ha (Tetranychus urticae [1]; [5]): 70% | Efficacy in % after 7 days (Tetranychus urticae [2]; 0.2 ppm): 0% | Efficacy in % after 4 days (Tetranychus urticae [2]; 0.4 ppm): 0% | Efficacy in % after 7 days (Tetranychus urticae [2]; 0.4 ppm): 10% | Efficacy in % after 4 days (Tetranychus urticae [2]; 0.8 ppm): 25% | Efficacy in % after 20 days (Meloidogyne incognita [3]; 10 ppm): 0% | Efficacy in % after 20 days (Meloidogyne incognita [3]; 20 ppm): 15%

c1ccc(-c2noc(-c3cccs3)n2)cc1 [Tioxazafen]
Efficacy in % after 20 days (Meloidogyne incognita [3]; 1.25 ppm): 0%

CC(C)(C)c1ccc(CSc2cnn(C(C)(C)C)c(=O)c2Cl)cc1 [Pyridaben, pyridaben]
pest or weed control at 0.5 g/ha (Tetranychus urticae [1]; [6]): 0%

CCc1nn(C)c(C(=O)NCc2ccc(C(C)(C)C)cc2)c1Cl [Tebufenpyrad, tebufenpyrad]
Efficacy in % after 2 days (Tetranychus urticae [1]; [7]): 0% | pest or weed control at 0.5 g/ha (Tetranychus urticae [1]; [6]): 0%

O=S(=O)(CCC(F)=C(F)F)c1ncc(Cl)s1 [Fluensulfone]
Efficacy in % after 20 days (Meloidogyne incognita [3]; 0.4 ppm): 0% | Efficacy in % after 14 days (Meloidogyne incognita [4]; 0.1 ppm): 0% | Efficacy in % after 14 days (Meloidogyne incognita [4]; 0.2 ppm): 0%

CCCCCCCCCCCCC1=C(OC(C)=O)C(=O)c2ccccc2C1=O [Acequinocyl, acequinocyl]
Efficacy in % after 2 days (Tetranychus urticae [1]; 1 g ai/ha, single active ingredient, mortality): 0% | pest or weed control at 1 g/ha (Tetranychus urticae [1]; Tetranychus urticae, foliar, 144 h, 1 g ai/ha, single active ingredient, mortality, read-out: Efficacy in % after 6 days): 0%

O=C(Nc1ccn(-c2c(F)cccc2F)n1)c1ccccc1C(F)(F)F [Cpd of formula (IIb), N-[1-(2,6-difluorophenyl)-1H-pyrazol-3-yl]-2-(trifluoromethyl)benzamide]
Efficacy in % after 20 days (Meloidogyne incognita [3]; 0.4 ppm): 0% | Efficacy in % after 14 days (Meloidogyne incognita [4]; 1.5 ppm): 0%

Cc1nn(C)c(Oc2ccccc2)c1C=NOCc1ccc(C(=O)OC(C)(C)C)cc1 [Fenpyroximate, fenpyroximate]
pest or weed control at 0.2 g/ha (Tetranychus urticae [1]; [8]): 0%

COc1ccc(-c2ccccc2)cc1NNC(=O)OC(C)C [Bifenazate]
pest or weed control at 0.25 g/ha (Tetranychus urticae [1]; Tetranychus urticae, foliar, 144 h, 0.25 g ai/ha, single active ingredient, mortality, read-out: Efficacy in % after 6 days): 0% | pest or weed control at 1.8 g/ha (Tetranychus urticae [1]; Tetranychus urticae, foliar, 144 h, 1.8 g ai/ha, single active ingredient, mortality, read-out: Efficacy in % after 6 days): 0% | Efficacy in % after 7 days (Tetranychus urticae [2]; 2 ppm): 65%

COc1ccc(Cl)c(S(=O)(=O)NC(=O)c2cn3cc(C(F)(F)F)cc(Cl)c3n2)c1 [Fluazaindolizine]
Efficacy in % after 20 days (Meloidogyne incognita [3]; 0.2 ppm): 0% | Efficacy in % after 20 days (Meloidogyne incognita [3]; 0.4 ppm): 40% | Efficacy in % after 14 days (Meloidogyne incognita [4]; 0.025 ppm): 0%

CNC(=O)Oc1cc(C)c(SC)c(C)c1 [Methiocarb, 4-methylthio-3,5-xylyl methylcarbamate]
pest or weed control at 6 g/ha (Tetranychus urticae [1]; Tetranychus urticae, foliar, 144 h, 6 g ai/ha, single active ingredient, mortality, read-out: Efficacy in % after 6 days): 0% | pest or weed control at 12 g/ha (Tetranychus urticae [1]; Tetranychus urticae, foliar, 144 h, 12 g ai/ha, single active ingredient, mortality, read-out: Efficacy in % after 6 days): 0%

CC(C)(C)c1ccc(CCOc2ncnc3ccccc23)cc1 [Fenazaquin, fenazaquin]
pest or weed control at 1.2 g/ha (Tetranychus urticae [1]; [5]): 0% | pest or weed control at 2.4 g/ha (Tetranychus urticae [1]; Tetranychus urticae, foliar, 144 h, 2.4 g ai/ha, single active ingredient, mortality, read-out: Efficacy in % after 6 days): 0%

O=C(NCCc1ncc(C(F)(F)F)cc1Cl)c1ccccc1C(F)(F)F [Fluopyram]
Efficacy in % after 20 days (Meloidogyne incognita [3]; 0.04 ppm): 0% | Efficacy in % after 20 days (Meloidogyne incognita [3]; 0.08 ppm): 0%

CC(C)c1cc(Oc2ccccc2)cc(C(C)C)c1NC(=S)NC(C)(C)C [Diafenthiuron, diafenthiuron]
Efficacy in % after 2 days (Tetranychus urticae [1]; [7]): 0% | pest or weed control at 0.5 g/ha (Tetranychus urticae [1]; [8]): 0% | pest or weed control at 3 g/ha (Tetranychus urticae [1]; [8]): 0% | Efficacy in % after 7 days (Tetranychus urticae [2]; 3.2 ppm): 15%
